Where a name gives a salt, the structure may show the parent alone. Marks after values point to notes of the source that are not given here.
Test: Plasma metabolite profiling (GC-MS, LC-MS, SPE-LC-MS) of rats dosed once daily over 28 days; treatment ratios versus untreated control
Type: in vivo, rat
Method in brief: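 Male and female rats (5/sex/group) dosed once daily for 28 days; fasted anaesthetized animals bled retro-orbitally (EDTA plasma) on days 7, 14, 28, stored −80 °C under N2. Polar and lipid fractions profiled by GC-MS (derivatized), LC-MS/MRM; steroids by online SPE-LC-MS. Pool-normalized data; treatment ratios vs sex-matched controls, Welch test p-values.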

[1] = plasma, female rats, day 28, high dose, Table 6a
[2] = plasma, female rats, day 28, high dose, Table 6b
[3] = plasma, female rats, day 28, high dose, Table 8c
[4] = plasma, female rats, day 28, high dose, Table 8d
[5] = plasma, female rats, day 28, low dose, Table 1c
[6] = plasma, female rats, day 28, low dose, Table 1d
[7] = plasma, male rats, day 28, low dose, Table 1b

SMILES | Isoleucine, ratio versus control [1] | 14-Methylhexadecanoic acid, ratio versus control [2] | 16-Methylheptadecanoic acid, ratio versus control [2] | 17-Methyloctadecanoic acid, ratio versus control [2] | Ceramide (d18:1,C24:1), ratio versus control [2] | Choline plasmalogen No 03, ratio versus control [2] | Isopalmitic acid (C16:0), ratio versus control [2] | Lactate, ratio versus control [2] | Myristic acid (C14:0), ratio versus control [2] | Phosphatidylcholine (C16:0, C20:4), ratio versus control [2] | Phosphatidylcholine No 04, ratio versus control [2] | Pyruvate, ratio versus control [2] | 3-Hydroxybutyrate, ratio versus control [3] | Isoleucine, ratio versus control [3] | TAG (C16:0,C18:2), ratio versus control [3] | 16-Methylheptadecanoic acid, ratio versus control [4] | 17-Methyloctadecanoic acid, ratio versus control [4] | Ceramide (d18:1,C24:1), ratio versus control [4] | Phosphatidylcholine (C16:0, C20:4), ratio versus control [4] | Phosphatidylcholine (C18:0, C20:3), ratio versus control [4] | further results
CN1CCc2cccc3c2[C@H]1Cc1ccc(O)c(O)c1-3 [Apomorphine] | 1.25* | 0.83* | 0.66* | 0.73* | 0.61* | 0.89* | 0.93 | 0.9 | 0.9* | 0.88* | 0.88* | 0.33* | 1.41 * | 1.25 * | 2.31 * | 0.66 * | 0.73 * | 0.61 * | 0.88 * | 0.98 * | Pyruvate, ratio versus control [4]: 0.33 *
O=C1NC(=O)C(c2ccccc2)(c2ccccc2)N1 [Phenytoin] |  |  |  |  |  |  |  |  |  |  |  |  |  |  |  |  |  |  |  |  | Coenzyme Q9, ratio versus control [5]: 1.22 *; Valine, ratio versus control [5]: 1.36 *; Cysteine, ratio versus control [6]: 0.86 *; Glutamate, ratio versus control [6]: 0.81 *; Pyruvate, ratio versus control [6]: 0.65 *; myo-Inositol, ratio versus control [6]: 0.69 *; 3-Indoxylsulfate, ratio versus control (plasma, male rats, day 28, low dose, Table 1a): 1.78^; Cysteine, ratio versus control [7]: 0.73 *; Ketoleucine, ratio versus control [7]: 0.76 *; Malate, ratio versus control [7]: 0.84 *; Phosphatidylcholine (C16:0, C20:4), ratio versus control [7]: 0.99 *; Phosphatidylcholine (C16:0, C22_6), ratio versus control [7]: 0.95 *; Isoleucine, ratio versus control (rat, in vivo): 1.23 *; Pantothenic acid, ratio versus control (rat, in vivo): 1.25 *; Phosphate (inorganic and organic phosphates), ratio versus control (rat, in vivo): 1.25 *; alpha-Tocopherol, ratio versus control (rat, in vivo): 1.16 *
CCC1(c2ccccc2)C(=O)NC(=O)NC1=O [Phenobarbital sodium] |  |  |  |  |  |  |  |  |  |  |  |  |  |  |  |  |  |  |  |  | 3-Indoxylsulfate, ratio versus control (rat, in vivo): 1.81 *; Coenzyme Q9, ratio versus control (rat, in vivo): 1.08 *; Glutamate, ratio versus control (rat, in vivo): 0.78 *; Isoleucine, ratio versus control (rat, in vivo): 1.12 *; Ketoleucine, ratio versus control (rat, in vivo): 0.88 *; Malate, ratio versus control (rat, in vivo): 0.69 *; Pantothenic acid, ratio versus control (rat, in vivo): 1.33 *; Phosphate (inorganic and organic phosphates), ratio versus control (rat, in vivo): 1.17 *; Phosphatidylcholine (C16:0, C20:4), ratio versus control (rat, in vivo): 0.99 *; Phosphatidylcholine (C16:0, C22_6), ratio versus control (rat, in vivo): 0.93 *; Pyruvate, ratio versus control (rat, in vivo): 0.73 *; Valine, ratio versus control (rat, in vivo): 1.15 *; alpha-Tocopherol, ratio versus control (rat, in vivo): 1.14 *; myo-Inositol, ratio versus control (rat, in vivo): 0.94 *
C#CCN(C)[C@H](C)Cc1ccccc1 [Selegiline hydrochloride] | 1.18* | 1.04 | 0.55* | 0.57* | 0.48* | 0.82 | 0.69* | 0.72* | 0.97 | 0.94* | 0.84 | 0.36* | 1.29 * | 1.18 * | 1.81 * | 0.55 * | 0.57 * | 0.48 * | 0.94 * | 0.92 * | 3-Methoxytyrosine, ratio versus control [1]: 1.38*; 4-Hydroxy-3-methoxyphenylglycol (HMPG), ratio versus control [2]: 0.3*; Homovanillic acid (HVA), ratio versus control [2]: 0.45*; Pyruvate, ratio versus control [4]: 0.36 *

Reference: patent US20150031572A1, “MEANS AND METHODS FOR ASSESSING NEURONAL TOXICITY” (priority 2012, published 2015)
